# Laboratory results taken from PubChem BioAssay (NCI).
#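 Protocol summary: plate cells (96-well), add compound at 5 concentrations, incubate 48 h, interpolate endpoints linearly. GI50: concentration for 50% inhibition of growth. TGI denotes the concentration required for complete inhibition of growth.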
# What was measured:
# Assay in all cases: inhibition of tumour cell growth, NCI panel, 48 h
# OVCAR-5 ovarian = test system: OVCAR-5 ovarian
# SN12C renal = test system: SN12C renal
# HOP-62 NSCLC = test system: HOP-62 NSCLC
# K-562 leukemia = test system: K-562 leukemia
# A549 NSCLC = test system: A549 NSCLC
# OVCAR-3 ovarian = test system: OVCAR-3 ovarian
# UACC-257 melanoma = test system: UACC-257 melanoma
# MOLT-4 leukemia = test system: MOLT-4 leukemia
# HT29 colon = test system: HT29 colon
# RXF-631 renal = test system: RXF-631 renal
# XF 498 CNS = test system: XF 498 CNS
# SK-MEL-5 melanoma = test system: SK-MEL-5 melanoma
# SNB-75 CNS = test system: SNB-75 CNS
# HCT-116 colon = test system: HCT-116 colon
# KM20L2 colon = test system: KM20L2 colon
# NCI-H226 lung = test system: NCI-H226 lung
# SK-MEL-28 melanoma = test system: SK-MEL-28 melanoma
# TK-10 renal = test system: TK-10 renal
# SR leukemia = test system: SR leukemia
# SNB-19 CNS = test system: SNB-19 CNS
# LXFL 529 NSCLC = test system: LXFL 529 NSCLC
# DLD-1 colon = test system: DLD-1 colon
# NCI-H522 lung = test system: NCI-H522 lung
# IGROV1 ovarian = test system: IGROV1 ovarian
# 786-0 renal = test system: 786-0 renal
# SF-295 CNS = test system: SF-295 CNS
# COLO 205 colon = test system: COLO 205 colon
# CAKI-1 renal = test system: CAKI-1 renal
# SNB-78 CNS = test system: SNB-78 CNS
# M19-MEL melanoma = test system: M19-MEL melanoma
# EKVX NSCLC = test system: EKVX NSCLC
# M14 melanoma = test system: M14 melanoma
# KM12 colon = test system: KM12 colon
# SK-MEL-2 melanoma = test system: SK-MEL-2 melanoma
# RXF 393 renal = test system: RXF 393 renal
# U251 CNS = test system: U251 CNS
# HCT-15 colon = test system: HCT-15 colon
# UO-31 renal = test system: UO-31 renal
# CCRF-CEM leukemia = test system: CCRF-CEM leukemia
# OVCAR-8 ovarian = test system: OVCAR-8 ovarian
# NCI-H23 lung = test system: NCI-H23 lung
# OVCAR-4 ovarian = test system: OVCAR-4 ovarian
# SF-268 CNS = test system: SF-268 CNS
# ACHN renal = test system: ACHN renal
# SW-620 colon = test system: SW-620 colon
# SK-OV-3 ovarian = test system: SK-OV-3 ovarian
# MALME-3M melanoma = test system: MALME-3M melanoma
# DMS 273 small cell lung = test system: DMS 273 small cell lung
# UACC-62 melanoma = test system: UACC-62 melanoma
# A498 renal = test system: A498 renal
# SF-539 CNS = test system: SF-539 CNS
# HCC-2998 colon = test system: HCC-2998 colon
# NCI-H460 lung = test system: NCI-H460 lung
# LOX IMVI melanoma = test system: LOX IMVI melanoma
# RPMI-8226 leukemia = test system: RPMI-8226 leukemia
# HOP-92 NSCLC = test system: HOP-92 NSCLC
# HOP-18 NSCLC = test system: HOP-18 NSCLC
structure (smiles),measurement,setting,value
CC(=O)CC(=O)Nc1c(C)[c]([Hg][O]C(C)=O)c(C)[c]([Hg][O]C(C)=O)[c]1[Hg][O]C(C)=O,GI50,OVCAR-5 ovarian,28.9 µM
same,TGI,OVCAR-5 ovarian,71.8 µM
same,GI50,SN12C renal,17.5 µM
same,TGI,SN12C renal,33.3 µM
same,GI50,HOP-62 NSCLC,20.8 µM
same,TGI,HOP-62 NSCLC,36.4 µM
same,GI50,K-562 leukemia,4 µM
same,TGI,K-562 leukemia,> 100 µM
same,GI50,A549 NSCLC,17.1 µM
same,TGI,A549 NSCLC,34.2 µM
same,GI50,OVCAR-3 ovarian,12.8 µM
same,TGI,OVCAR-3 ovarian,25.5 µM
same,GI50,UACC-257 melanoma,14.4 µM
same,TGI,UACC-257 melanoma,28.5 µM
same,GI50,MOLT-4 leukemia,10.3 µM
same,TGI,MOLT-4 leukemia,> 100 µM
same,GI50,HT29 colon,12.2 µM
same,TGI,HT29 colon,30.5 µM
same,GI50,RXF-631 renal,2.39 µM
same,TGI,RXF-631 renal,7.75 µM
same,GI50,XF 498 CNS,4.38 µM
same,TGI,XF 498 CNS,15.6 µM
same,GI50,SK-MEL-5 melanoma,2.99 µM
same,TGI,SK-MEL-5 melanoma,11.3 µM
same,GI50,SNB-75 CNS,12.9 µM
same,TGI,SNB-75 CNS,25.9 µM
same,GI50,HCT-116 colon,18.2 µM
same,TGI,HCT-116 colon,41.1 µM
same,GI50,KM20L2 colon,18.8 µM
same,TGI,KM20L2 colon,48.2 µM
same,GI50,NCI-H226 lung,29.4 µM
same,TGI,NCI-H226 lung,56.5 µM
same,GI50,SK-MEL-28 melanoma,12.6 µM
same,TGI,SK-MEL-28 melanoma,26.3 µM
same,GI50,TK-10 renal,13 µM
same,TGI,TK-10 renal,25.7 µM
same,GI50,SR leukemia,5.31 µM
same,TGI,SR leukemia,> 100 µM
same,GI50,SNB-19 CNS,2.47 µM
same,TGI,SNB-19 CNS,6.61 µM
same,GI50,LXFL 529 NSCLC,6.54 µM
same,TGI,LXFL 529 NSCLC,20.7 µM
same,GI50,DLD-1 colon,13.6 µM
same,TGI,DLD-1 colon,51.1 µM
same,GI50,NCI-H522 lung,10.4 µM
same,TGI,NCI-H522 lung,35.8 µM
same,GI50,IGROV1 ovarian,15.4 µM
same,TGI,IGROV1 ovarian,40.7 µM
same,GI50,786-0 renal,10.9 µM
same,TGI,786-0 renal,24.4 µM
same,GI50,SF-295 CNS,18.5 µM
same,TGI,SF-295 CNS,36.2 µM
same,GI50,COLO 205 colon,33.3 µM
same,TGI,COLO 205 colon,> 100 µM
same,GI50,CAKI-1 renal,18.6 µM
same,TGI,CAKI-1 renal,32.6 µM
same,GI50,SNB-78 CNS,22.7 µM
same,TGI,SNB-78 CNS,58.4 µM
same,GI50,M19-MEL melanoma,15.4 µM
same,TGI,M19-MEL melanoma,36.5 µM
same,GI50,EKVX NSCLC,20.6 µM
same,TGI,EKVX NSCLC,41.3 µM
same,GI50,M14 melanoma,12.7 µM
same,TGI,M14 melanoma,29.8 µM
same,GI50,KM12 colon,16.9 µM
same,TGI,KM12 colon,34.8 µM
same,GI50,SK-MEL-2 melanoma,16.1 µM
same,TGI,SK-MEL-2 melanoma,31.7 µM
same,GI50,RXF 393 renal,3.44 µM
same,TGI,RXF 393 renal,16.2 µM
same,GI50,U251 CNS,11.7 µM
same,TGI,U251 CNS,24.6 µM
same,GI50,HCT-15 colon,15.1 µM
same,TGI,HCT-15 colon,35.7 µM
same,GI50,UO-31 renal,22.4 µM
same,TGI,UO-31 renal,40 µM
same,GI50,CCRF-CEM leukemia,4.01 µM
same,TGI,CCRF-CEM leukemia,49.5 µM
same,GI50,OVCAR-8 ovarian,10.9 µM
same,TGI,OVCAR-8 ovarian,24.4 µM
same,GI50,NCI-H23 lung,10.6 µM
same,TGI,NCI-H23 lung,24.5 µM
same,GI50,OVCAR-4 ovarian,15.6 µM
same,TGI,OVCAR-4 ovarian,30.6 µM
same,GI50,SF-268 CNS,15.4 µM
same,TGI,SF-268 CNS,35.4 µM
same,GI50,ACHN renal,14.2 µM
same,TGI,ACHN renal,27.3 µM
same,GI50,SW-620 colon,10 µM
same,TGI,SW-620 colon,27.4 µM
same,GI50,SK-OV-3 ovarian,20.9 µM
same,TGI,SK-OV-3 ovarian,35.3 µM
same,GI50,MALME-3M melanoma,6.56 µM
same,TGI,MALME-3M melanoma,20.4 µM
same,GI50,DMS 273 small cell lung,18.4 µM
same,TGI,DMS 273 small cell lung,50.4 µM
same,GI50,UACC-62 melanoma,11.8 µM
same,TGI,UACC-62 melanoma,24.1 µM
same,GI50,A498 renal,15.3 µM
same,TGI,A498 renal,28.8 µM
same,GI50,SF-539 CNS,18.1 µM
same,TGI,SF-539 CNS,37.1 µM
same,GI50,HCC-2998 colon,17.6 µM
same,TGI,HCC-2998 colon,32.6 µM
COC1=CC(=C(C#N)C(=Nc2ccccc2)SC)C=C(OC)C1=O,TGI,SN12C renal,> 100 µM
same,TGI,K-562 leukemia,63.1 µM
same,TGI,A549 NSCLC,> 100 µM
same,TGI,OVCAR-3 ovarian,> 100 µM
same,TGI,UACC-257 melanoma,> 100 µM
same,TGI,MOLT-4 leukemia,53.1 µM
same,TGI,HT29 colon,> 100 µM
same,TGI,RXF-631 renal,> 100 µM
same,TGI,SK-MEL-5 melanoma,42.7 µM
same,TGI,NCI-H460 lung,> 100 µM
same,TGI,SNB-75 CNS,> 100 µM
same,TGI,HCT-116 colon,> 100 µM
same,TGI,LOX IMVI melanoma,> 100 µM
same,TGI,SK-MEL-28 melanoma,> 100 µM
same,TGI,TK-10 renal,> 100 µM
same,TGI,LXFL 529 NSCLC,36.2 µM
same,TGI,DLD-1 colon,77.3 µM
same,TGI,NCI-H522 lung,> 100 µM
same,TGI,IGROV1 ovarian,> 100 µM
same,TGI,786-0 renal,> 100 µM
same,TGI,SF-295 CNS,> 100 µM
same,TGI,COLO 205 colon,> 100 µM
same,TGI,CAKI-1 renal,> 100 µM
same,TGI,SNB-78 CNS,> 100 µM
same,TGI,M19-MEL melanoma,> 100 µM
same,TGI,EKVX NSCLC,> 100 µM
same,TGI,KM12 colon,> 100 µM
same,TGI,RXF 393 renal,78 µM
same,TGI,U251 CNS,2.62 µM
same,TGI,HCT-15 colon,> 100 µM
same,TGI,UO-31 renal,> 100 µM
same,TGI,CCRF-CEM leukemia,43.5 µM
same,TGI,OVCAR-8 ovarian,> 100 µM
same,TGI,NCI-H23 lung,> 100 µM
same,TGI,RPMI-8226 leukemia,52.2 µM
same,TGI,HOP-92 NSCLC,9.97 µM
same,TGI,ACHN renal,> 100 µM
same,TGI,SW-620 colon,> 100 µM
same,TGI,SK-OV-3 ovarian,> 100 µM
same,TGI,MALME-3M melanoma,> 100 µM
same,TGI,DMS 273 small cell lung,> 100 µM
same,TGI,UACC-62 melanoma,> 100 µM
same,TGI,HOP-18 NSCLC,> 100 µM
same,TGI,A498 renal,80 µM
same,TGI,SF-539 CNS,> 100 µM
same,TGI,HCC-2998 colon,> 100 µM
